Earlier results, collected in patent publication US8895729B2, “Process for making thienopyrimidine compounds” (Genentech, Inc., priority 2012, dated 2014).
pIC50: −log10 of the molar value.

Columns and labels:
[1] = test system: MCF7-neo/HER2 cell line
[2] = not given; remark: listed apart in the source
[3] = test system: receptor screening assay (n=68); details: GDC-0980=10 microM
[4] = single oral dose
[5] = test system: PC3 PTEN-prostate xenograft; details: mouse PC3 PTEN- prostate xenograft; 25 to 150 mg/kg qd po
[6] = test system: MCF7.1 E545K breast xenograft; details: mouse MCF7.1 E545K breast xenograft; 25 to 150 mg/kg qd po
[7] = test system: MDA-MB-361.1 breast cancer xenograft
[8] = test system: xenograft cancer models; breast, ovarian, lung, and prostate

Cc1c(CN2CCN(C(=O)[C@H](C)O)CC2)sc2c(N3CCOCC3)nc(-c3cnc(N)nc3)nc12 [GDC-0980, (S)-1-(4-((2-(2-aminopyrimidin-5-yl)-7-methyl-4-morpholinothieno[3,2-d]pyrimidin-6-yl)methyl)piperazin-1-yl)-2-hydroxypropan-1-one]
pIC50 [1]: 6.49
stability in human microsomes: stable
stability in human hepatocytes [2]: stable
responses in a receptor screening assay [3]: did not elicit significant responses
AUC dose dependence [4]: dose-proportional increases
Cmax dose dependence [4]: dose-proportional increases
efficacy in xenograft model [5]: efficacious
efficacy in xenograft model [6]: efficacious
minimum dose producing significant growth inhibition [7]: 1.0 mg/kg QD
activity in preclinical xenograft cancer models [8]: broad activity
